From patent US20260022142A1, “MACROCYCLIC IMMUNOMODULATORS” (Bristol-Myers Squibb Company, priority 2022, published 2026)
Bridge positions count the residues as written; N and C are the ends. Square brackets hold non-standard residues; d marks the D form. Peptide text beside a SMILES is read from it. * marks the point of attachment. ξ: configuration not given here. Phe(3,4-(OMe)2) = COc1ccc(C[C@H](N)C(=O)O)cc1OC; Ala(morpholin-4-yl) = N[C@@H](CN1CCOCC1)C(=O)O; Phe(4-COOH) = N[C@@H](Cc1ccc(C(=O)O)cc1)C(=O)O; Bip = N[C@@H](Cc1ccc(-c2ccccc2)cc1)C(=O)O; Phe(3-F) = N[C@@H](Cc1cccc(F)c1)C(=O)O; Phe(3-Me) = Cc1cccc(C[C@H](N)C(=O)O)c1; Lys(Me2) = CN(C)CCCC[C@H](N)C(=O)O; Val(3-OH) = CC(C)(O)[C@H](N)C(=O)O; hArg = N=C(N)NCCCC[C@H](N)C(=O)O; 4Pal = N[C@@H](Cc1ccncc1)C(=O)O; Cha = N[C@@H](CC1CCCCC1)C(=O)O; Cit = NC(=O)NCCC[C@H](N)C(=O)O; Thr(3ξ) = CC(O)[C@H](N)C(=O)O; Tle = CC(C)(C)[C@H](N)C(=O)O; 12Ado = NCCCCCCCCCCCC(=O)O; hSer = N[C@@H](CCO)C(=O)O; Carboxymethyl = O=C(O)C*; Orn = NCCC[C@H](N)C(=O)O; Aun = NCCCCCCCCCCC(=O)O; Dab = NCC[C@H](N)C(=O)O; Nva = CCC[C@H](N)C(=O)O; Dap = NC[C@H](N)C(=O)O; AEEA = NCCOCCOCC(=O)O; Piv = CC(C)(C)C(=O)*

target: T1, PD-1/PD-L1 interaction (PE-labeled human PD-L1-Ig binding to Jurkat cell line over-expressing human PD-1) (Homo sapiens, UniProt Q15116); experiment: Jurkat-PD-1 Cell Binding High-Content Screening Assay (CBA); type: cell-based; conditions: Jurkat cell line over-expressing human PD-1; PE-labeled PD-L1-Ig 20 nM final; read-out: Jurkat hPD1-PDL1 IC50
T1 construct: expressed in transfected cells; host or cells: Jurkat
T1 sequence (Q15116 25-288): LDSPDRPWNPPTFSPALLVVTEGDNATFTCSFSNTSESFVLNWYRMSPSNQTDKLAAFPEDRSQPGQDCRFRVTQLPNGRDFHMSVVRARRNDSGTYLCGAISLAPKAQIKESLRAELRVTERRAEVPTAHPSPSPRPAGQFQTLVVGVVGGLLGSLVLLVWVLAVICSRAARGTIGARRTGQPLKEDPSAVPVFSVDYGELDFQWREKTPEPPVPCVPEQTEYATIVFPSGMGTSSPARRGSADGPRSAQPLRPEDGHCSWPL
Summary of the method: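 Binding of fluorescent PD-L1-Ig (phycoerythrin on Ig tag, 20 nM final, 1 h) measured by high-content imaging of fixed, Hoechst-counterstained Jurkat-hPD-1 cells. Compound added 2 h at 37° C beforehand, in DMEM with 10% fetal calf serum.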

IC50 [µM] | SMILES
0.0194 | Cc1cccc(C[C@@H]2NC(=O)[C@H](CC(=O)O)NC(=O)[C@H](Cc3ccc(OCC(=O)O)cc3)NC(=O)[C@H](CN3CCOCC3)NC(=O)CSC[C@@H](C(=O)N[C@@H](CCN)C(=O)NCCCCCCCCCCC(=O)O)NC(=O)[C@H](CCCCN)NC(=O)[C@H](C(C)C)NC(=O)[C@H](CC3CCCCC3)NC(=O)[C@H](CCN)NC(=O)[C@@H](CC(C)C)NC(=O)[C@H](CCCN)NC(=O)[C@H](C(C)C)NC(=O)[C@H](Cc3ccc(-c4ccccc4)cc3)NC(=O)[C@H](C(C)C)NC2=O)c1 [Compound 2039] ({CH2CO}-[Ala(morpholin-4-yl)]Y(Carboxymethyl)D[Phe(3-Me)]V[Bip]V[Orn][dL][Dab][Cha]VKC[Dab][Aun]-OH; thioether N-14)
0.0129 | Cc1cccc(C[C@@H]2NC(=O)[C@H](CC(=O)O)NC(=O)[C@H](Cc3ccc(OCC(=O)O)cc3)NC(=O)[C@H](Cc3ccncc3)NC(=O)CSC[C@@H](C(=O)N[C@@H](CCN)C(=O)NCCCCCCCCCCC(=O)O)NC(=O)[C@H](CO)NC(=O)[C@H](C(C)(C)O)NC(=O)[C@H](CC3CCCCC3)NC(=O)[C@H](CCN)NC(=O)[C@@H](CC(C)C)NC(=O)[C@H](CCCN)NC(=O)[C@H](Cc3ccc(OCC(=O)O)cc3)NC(=O)[C@H](Cc3ccc(-c4ccccc4)cc3)NC(=O)[C@H](Cc3cccc(F)c3)NC2=O)c1 [Compound 2194] ({CH2CO}-[4Pal]Y(Carboxymethyl)D[Phe(3-Me)][Phe(3-F)][Bip]Y(Carboxymethyl)[Orn][dL][Dab][Cha][Val(3-OH)]SC[Dab][Aun]-OH; thioether N-14)
0.025 | Cc1cccc(C[C@@H]2NC(=O)[C@H](CC(=O)O)NC(=O)[C@H](Cc3ccncc3)NC(=O)[C@H](Cc3ccc(OCC(=O)O)cc3)NC(=O)CSC[C@@H](C(=O)NCCOCCOCC(=O)N[C@@H](CCCCN)C(=O)NCCCCCCCCCCC(=O)O)NC(=O)[C@H]([C@@H](C)O)NC(=O)[C@H](C(C)C)NC(=O)[C@H](CC3CCCCC3)NC(=O)[C@H](CCN)NC(=O)[C@@H](CC(C)C)NC(=O)[C@H](CCCN)NC(=O)[C@H](C(C)C)NC(=O)[C@H](Cc3ccc(-c4ccccc4)cc3)NC(=O)[C@H](C(C)C)NC2=O)c1 [Compound 1172] ({CH2CO}-Y(Carboxymethyl)[4Pal]D[Phe(3-Me)]V[Bip]V[Orn][dL][Dab][Cha]VTC[AEEA]K[Aun]-OH; thioether N-14)
0.0105 | Cc1cccc(C[C@@H]2NC(=O)[C@H](CC(=O)O)NC(=O)[C@H](Cc3ccc(OCC(=O)O)cc3)NC(=O)[C@H](C(C)O)NC(=O)CSC[C@@H](C(=O)N[C@@H](CCN)C(=O)NCCOCCOCC(=O)NCCCCCCCCCCC(=O)O)NC(=O)[C@H](CCC(=O)O)NC(=O)[C@H](C(C)C)NC(=O)[C@H](CC3CCCCC3)NC(=O)[C@H](CCN)NC(=O)[C@@H](CC(C)C)NC(=O)[C@H](CCCN)NC(=O)[C@H](Cc3ccc(OCC(=O)O)cc3)NC(=O)[C@H](Cc3ccc(-c4ccccc4)cc3)NC(=O)[C@H](Cc3ccc(C(=O)O)cc3)NC2=O)c1 (stereo partly drawn) [Compound 3737] ({CH2CO}-[Thr(3ξ)]Y(Carboxymethyl)D[Phe(3-Me)][Phe(4-COOH)][Bip]Y(Carboxymethyl)[Orn][dL][Dab][Cha]VEC[Dab][AEEA][Aun]-OH; thioether N-14)
0.071 | Cc1cccc(C[C@@H]2NC(=O)[C@H](CC(=O)O)NC(=O)[C@H](Cc3ccc(OCC(=O)O)cc3)NC(=O)[C@H](CCCCN(C)C)NC(=O)CSC[C@@H](C(=O)N[C@@H](CCCN)C(=O)N[C@@H](CO)C(=O)NCCCCCCCCCCCC(=O)O)NC(=O)[C@H](C(C)O)NC(=O)[C@H](CCO)NC(=O)[C@H](CC3CCCCC3)NC(=O)[C@H](CCN)NC(=O)[C@@H](CC(C)C)NC(=O)[C@H](CCCN)NC(=O)[C@H](CCCNC(N)=O)NC(=O)[C@H](Cc3ccc(-c4ccccc4)cc3)NC(=O)[C@H](C(C)C)NC2=O)c1 (stereo partly drawn) [Compound 3582] ({CH2CO}-[Lys(Me2)]Y(Carboxymethyl)D[Phe(3-Me)]V[Bip][Cit][Orn][dL][Dab][Cha][hSer][Thr(3ξ)]C[Orn]S[12Ado]-OH; thioether N-14)
0.731 | COc1ccc(C[C@@H]2NC(=O)[C@H](CC(=O)O)NC(=O)[C@H](Cc3ccc(OCC(=O)O)cc3)NC(=O)[C@H](CN)NC(=O)CSC[C@@H](C(=O)N[C@@H](CCN)C(=O)NCCOCCOCC(=O)NCCCCCCCCCCC(=O)O)NC(=O)[C@H](CCCN)NC(=O)[C@H](C(C)C)NC(=O)[C@H](CC3CCCCC3)NC(=O)[C@H](CCN)NC(=O)[C@@H](CC(C)C)NC(=O)[C@H](CCCN)NC(=O)[C@H](Cc3ccc(O)cc3)NC(=O)[C@H](Cc3ccc(-c4ccccc4)cc3)NC(=O)[C@H](C(C)C)NC2=O)cc1OC [Compound 1283] ({CH2CO}-[Dap]Y(Carboxymethyl)D[Phe(3,4-(OMe)2)]V[Bip]Y[Orn][dL][Dab][Cha]V[Orn]C[Dab][AEEA][Aun]-OH; thioether N-14)
0.0215 | CC(C)C[C@H]1NC(=O)[C@H](CCCN)NC(=O)[C@H](C(C)C)NC(=O)[C@H](Cc2ccc(-c3ccccc3)cc2)NC(=O)[C@H](C(C)C)NC(=O)[C@H](Cc2c[nH]c3ccccc23)NC(=O)[C@H](CC(=O)O)NC(=O)[C@H](Cc2ccc(OCC(=O)O)cc2)NC(=O)[C@H](CN)NC(=O)CSC[C@@H](C(=O)N[C@@H](CCN)C(=O)NCCCCCCCCCCC(=O)O)NC(=O)[C@H](CCCCN)NC(=O)[C@H](C(C)O)NC(=O)[C@H](CC2CCCCC2)NC(=O)[C@H](CCN)NC1=O (stereo partly drawn) [Compound 3648] ({CH2CO}-[Dap]Y(Carboxymethyl)DWV[Bip]V[Orn][dL][Dab][Cha][Thr(3ξ)]KC[Dab][Aun]-OH; thioether N-14)
0.0043 | Cc1cccc(C[C@@H]2NC(=O)[C@H](CC(=O)O)NC(=O)[C@H](Cc3ccc(OCC(=O)O)cc3)NC(=O)[C@H](CCCCNC(=N)N)NC(=O)CSC[C@@H](C(=O)N[C@@H](CCN)C(=O)NCCCCCCCCCCC(=O)O)NC(=O)[C@H](CCCN)NC(=O)[C@H](C(C)C)NC(=O)[C@H](CC3CCCCC3)NC(=O)[C@H](CCN)NC(=O)[C@@H](CC(C)C)NC(=O)[C@H](CCN)NC(=O)[C@H](CCC(N)=O)NC(=O)[C@H](Cc3ccc(-c4ccccc4)cc3)NC(=O)[C@H](C(C)C)NC2=O)c1 [Compound 3359] ({CH2CO}-[hArg]Y(Carboxymethyl)D[Phe(3-Me)]V[Bip]Q[Dab][dL][Dab][Cha]V[Orn]C[Dab][Aun]-OH; thioether N-14)
0.0015 | CCC[C@@H]1NC(=O)CSC[C@@H](C(=O)N[C@@H](CCN)C(=O)NCCOCCOCC(=O)NCCCCCCCCCCC(=O)O)NC(=O)[C@H](CO)NC(=O)[C@H](C(C)(C)O)NC(=O)[C@H](CC2CCCCC2)NC(=O)[C@H](CCN)NC(=O)[C@@H](CC(C)C)NC(=O)[C@H](CCCN)NC(=O)[C@H](Cc2ccc(C(=O)O)cc2)NC(=O)[C@H](Cc2ccc(-c3ccccc3)cc2)NC(=O)[C@H](Cc2ccc(C(=O)O)cc2)NC(=O)[C@H](Cc2cccc(C)c2)NC(=O)[C@H](CC(=O)O)NC(=O)[C@H](Cc2ccc(OCC(=O)O)cc2)NC1=O [Compound 2877] ({CH2CO}-[Nva]Y(Carboxymethyl)D[Phe(3-Me)][Phe(4-COOH)][Bip][Phe(4-COOH)][Orn][dL][Dab][Cha][Val(3-OH)]SC[Dab][AEEA][Aun]-OH; thioether N-14)
0.0126 | COc1ccc(C[C@@H]2NC(=O)[C@H](Cc3ccc(-c4ccccc4)cc3)NC(=O)[C@H](Cc3ccc(O)cc3)NC(=O)[C@H](Cc3cccc(C)c3)NC(=O)[C@H](CC(=O)O)NC(=O)[C@H](Cc3ccc(OCC(=O)O)cc3)NC(=O)[C@H](CN)NC(=O)CSC[C@@H](C(=O)N[C@@H](CCN)C(=O)NCCOCCOCC(=O)NCCCCCCCCCCC(=O)O)NC(=O)[C@H](CCCN)NC(=O)[C@H](C(C)C)NC(=O)[C@H](CC3CCCCC3)NC(=O)[C@H](CCN)NC(=O)[C@@H](CC(C)C)NC(=O)[C@H](CCCN)NC2=O)cc1 [Compound 2056] ({CH2CO}-[Dap]Y(Carboxymethyl)D[Phe(3-Me)]Y[Bip]Y(Me)[Orn][dL][Dab][Cha]V[Orn]C[Dab][AEEA][Aun]-OH; thioether N-14)
0.0109 | Cc1cccc(C[C@@H]2NC(=O)[C@H](CC(=O)O)NC(=O)[C@H](Cc3ccc(OCC(=O)O)cc3)NC(=O)[C@H](CCCCNC(=N)N)NC(=O)CSC[C@@H](C(=O)N[C@@H](CCN)C(=O)NCCCCCCCCCCC(=O)O)NC(=O)[C@H](CCCN)NC(=O)[C@H](C(C)C)NC(=O)[C@H](CC3CCCCC3)NC(=O)[C@H](CCN)NC(=O)[C@@H](CC(C)C)NC(=O)[C@H](CCCN)NC(=O)[C@H](C(C)C)NC(=O)[C@H](Cc3ccc(-c4ccccc4)cc3)NC(=O)[C@H](C(C)C)NC2=O)c1 [Compound 3259] ({CH2CO}-[hArg]Y(Carboxymethyl)D[Phe(3-Me)]V[Bip]V[Orn][dL][Dab][Cha]V[Orn]C[Dab][Aun]-OH; thioether N-14)
0.0279 | Cc1cccc(C[C@@H]2NC(=O)[C@H](CC(=O)O)NC(=O)[C@H](Cc3ccc(OCC(=O)O)cc3)NC(=O)[C@H](CCNC(=O)C(C)(C)C)NC(=O)CSC[C@@H](C(=O)N[C@@H](CCN)C(=O)NCCCCCCCCCCC(=O)O)NC(=O)[C@H](C(C)O)NC(=O)[C@H](C(C)(C)C)NC(=O)[C@H](CC3CCCCC3)NC(=O)[C@H](CCN)NC(=O)[C@@H](CC(C)C)NC(=O)[C@H](CCCN)NC(=O)[C@H](Cc3ccc(OCC(=O)O)cc3)NC(=O)[C@H](Cc3ccc(-c4ccccc4)cc3)NC(=O)[C@H](Cc3ccc(O)cc3)NC2=O)c1 (stereo partly drawn) [Compound 3517] ({CH2CO}-[Dab](Piv)Y(Carboxymethyl)D[Phe(3-Me)]Y[Bip]Y(Carboxymethyl)[Orn][dL][Dab][Cha][Tle][Thr(3ξ)]C[Dab][Aun]-OH; thioether N-14)
0.0067 | Cc1cccc(C[C@@H]2NC(=O)[C@H](CC(=O)O)NC(=O)[C@H](Cc3ccc(OCC(=O)O)cc3)NC(=O)[C@H](CCN)NC(=O)CSC[C@@H](C(=O)N[C@@H](CCN)C(=O)NCCCCCCCCCCC(=O)O)NC(=O)[C@H](CO)NC(=O)[C@H](C(C)O)NC(=O)[C@H](CC3CCCCC3)NC(=O)[C@H](CCN)NC(=O)[C@@H](CC(C)C)NC(=O)[C@H](CCCN)NC(=O)[C@H](Cc3ccc(OCC(=O)O)cc3)NC(=O)[C@H](Cc3ccc(-c4ccccc4)cc3)NC(=O)[C@H](Cc3ccc(OCC(=O)O)cc3)NC2=O)c1 (stereo partly drawn) [Compound 3630] ({CH2CO}-[Dab]Y(Carboxymethyl)D[Phe(3-Me)]Y(Carboxymethyl)[Bip]Y(Carboxymethyl)[Orn][dL][Dab][Cha][Thr(3ξ)]SC[Dab][Aun]-OH; thioether N-14)
